According to ChEMBL document CHEMBL1201862, “PubChem BioAssay data set” (2004):
Where “and” joins values, the source holds several entries; their conditions need not be identical. Identical values can stand only once.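 Step 1: Grow cells in 96-well plates. Step 2: Expose to compound for 48 hours at 5 concentrations. Step 3: Interpolate endpoints linearly; if unreached, use highest concentration. Here, GI50 denotes the concentration required for 50% inhibition of growth.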 Calls of active or inactive are those of the source. No stated cut-off is given here; in the data, active = GI50 up to about 1.1 µM and inactive = higher.

Tests used:
Test in all cases: NCI tumour cell line growth inhibition, 48 h
SK-MEL-28 = system: SK-MEL-28
HL-60 = system: HL-60
SR = system: SR
OVCAR-4 = system: OVCAR-4
IGROV-1 = system: IGROV-1
Hs-578T = system: Hs-578T
A498 = system: A498
OVCAR-8 = system: OVCAR-8
COLO 205 = system: COLO 205
KM12 = system: KM12
SK-MEL-2 = system: SK-MEL-2
SK-OV-3 = system: SK-OV-3
UACC-62 = system: UACC-62
NCI/ADR-RES = system: NCI/ADR-RES
PC-3 = system: PC-3
HT-29 = system: HT-29
LOX IMVI = system: LOX IMVI
OVCAR-3 = system: OVCAR-3
MDA-MB-435 = system: MDA-MB-435
SF-539 = system: SF-539

| SMILES | GI50 (SK-MEL-28) | GI50 (HL-60) | GI50 (SR) | GI50 (OVCAR-4) | GI50 (IGROV-1) | GI50 (Hs-578T) | GI50 (A498) | GI50 (OVCAR-8) | GI50 (COLO 205) | GI50 (KM12) | GI50 (SK-MEL-2) | GI50 (SK-OV-3) | GI50 (UACC-62) | GI50 (NCI/ADR-RES) | GI50 (PC-3) | GI50 (HT-29) | GI50 (LOX IMVI) | GI50 (OVCAR-3) | GI50 (MDA-MB-435) | GI50 (SF-539) |
| --- | --- | --- | --- | --- | --- | --- | --- | --- | --- | --- | --- | --- | --- | --- | --- | --- | --- | --- | --- | --- |
| CC1=Nn2c(nc3sc4c(c3c2=O)CCCC4)SC1 | > 100 µM (inactive) | 34.8 µM (inactive) | 57 µM (inactive) | 71.3 µM (inactive) | > 76.4 µM (inactive) | > 90.4 µM (inactive) | > 50.1 µM (inactive) | > 100 µM (inactive) | > 87.9 µM (inactive) | > 83.9 µM (inactive) | > 100 µM (inactive) | > 100 µM (inactive) | 76.4 µM (inactive) | 98.6 µM (inactive) | 63 µM (inactive) | > 88.7 µM (inactive) | 21.4 µM (inactive) | 76 µM (inactive) | > 77.1 µM (inactive) | > 48.6 µM (inactive) |
| O=c1[nH]c(N/N=C\C(O)C(O)C(O)CO)nc2ccccc12 (stereo not drawn) | > 100 µM (inactive) | > 100 µM (inactive) | > 100 µM (inactive) and 56.2 µM (inactive) |  | > 100 µM (inactive) | > 100 µM (inactive) | > 100 µM (inactive) | > 100 µM (inactive) | 83.2 µM (inactive) | > 100 µM (inactive) | > 100 µM (inactive) | > 100 µM (inactive) | > 100 µM (inactive) | > 100 µM (inactive) | > 100 µM (inactive) | > 100 µM (inactive) | > 100 µM (inactive) | > 100 µM (inactive) | > 100 µM (inactive) | > 100 µM (inactive) |
| C=CCOCn1cnc2c(N)ncnc21 | > 100 µM (inactive) | > 100 µM (inactive) | > 100 µM (inactive) | > 100 µM (inactive) | > 100 µM (inactive) | > 100 µM (inactive) | > 100 µM (inactive) | > 100 µM (inactive) | > 100 µM (inactive) | > 100 µM (inactive) | > 100 µM (inactive) | > 100 µM (inactive) | > 100 µM (inactive) | > 100 µM (inactive) | > 100 µM (inactive) | > 100 µM (inactive) | > 100 µM (inactive) |  | > 100 µM (inactive) | > 100 µM (inactive) |
| COC(=O)C1SC[C@H]2C(=O)N(c3ccccc3)C(=O)N12 (stereo partly drawn) | > 100 µM (inactive) | > 100 µM (inactive) | > 100 µM (inactive) | > 100 µM (inactive) | > 100 µM (inactive) | > 100 µM (inactive) | 21.4 µM (inactive) | > 100 µM (inactive) | > 100 µM (inactive) | > 100 µM (inactive) | > 100 µM (inactive) | > 100 µM (inactive) | > 100 µM (inactive) | > 100 µM (inactive) | > 100 µM (inactive) | > 100 µM (inactive) | > 100 µM (inactive) | > 100 µM (inactive) | > 100 µM (inactive) | > 100 µM (inactive) |
| CC1(C)OC2C(CO)OC(n3cnc(N)nc3=O)C2O1 (stereo not drawn) | > 100 µM (inactive) | > 100 µM (inactive) | > 100 µM (inactive) |  | > 100 µM (inactive) | > 100 µM (inactive) | > 100 µM (inactive) | > 100 µM (inactive) | > 100 µM (inactive) |  | > 100 µM (inactive) | > 100 µM (inactive) | > 100 µM (inactive) | > 100 µM (inactive) | > 100 µM (inactive) |  | > 100 µM (inactive) | > 100 µM (inactive) | > 100 µM (inactive) | > 100 µM (inactive) |
| C(=N\N=C1NCCN1)/c1ccc2ccccc2c1 | 14.3 µM (inactive) | 8.67 µM (inactive) | 12.9 µM (inactive) | 18.1 µM (inactive) | 9.95 µM (inactive) | 19.5 µM (inactive) | 14 µM (inactive) | 16.4 µM (inactive) | 6.84 µM (inactive) | 14.9 µM (inactive) | 19.5 µM (inactive) | 10.8 µM (inactive) | 14.4 µM (inactive) | 11.8 µM (inactive) | 14.3 µM (inactive) | 14.5 µM (inactive) | 12.7 µM (inactive) | 16.1 µM (inactive) | 15.6 µM (inactive) | 19 µM (inactive) |
| O=C(ON=C1c2ccccc2C(Br)C(Br)c2ccccc21)c1ccccc1 (stereo not drawn) | 18.2 µM (inactive) | 0.59 µM (active) | 3.09 µM (inactive) | 13.2 µM (inactive) | 2.44 µM (inactive) | 21.5 µM (inactive) | 25.2 µM (inactive) | 9.18 µM (inactive) | 15.8 µM (inactive) | 17.9 µM (inactive) | 30.2 µM (inactive) | 18.6 µM (inactive) | 16.7 µM (inactive) | 22.8 µM (inactive) | 19.8 µM (inactive) | 17.1 µM (inactive) | 4.28 µM (inactive) | 14.8 µM (inactive) | 17.3 µM (inactive) | 7.01 µM (inactive) |
| Cc1cccc2c1C/C(=C\c1cccc(C)c1C(=O)O)C2=O | > 100 µM (inactive) | > 100 µM (inactive) | 54.7 µM (inactive) | > 100 µM (inactive) | > 100 µM (inactive) | > 100 µM (inactive) | > 100 µM (inactive) | > 100 µM (inactive) | 82.6 µM (inactive) | > 100 µM (inactive) | > 100 µM (inactive) |  | > 100 µM (inactive) | > 100 µM (inactive) | > 100 µM (inactive) | 70.1 µM (inactive) | > 100 µM (inactive) | > 100 µM (inactive) | > 100 µM (inactive) | > 100 µM (inactive) |
| O=C(c1ccccc1)N(C(=O)c1ccccc1)c1nc(SCc2ccccc2)ns1 | 30.8 µM (inactive) | 21.8 µM (inactive) | 22.2 µM (inactive) | 39.9 µM (inactive) | 36.9 µM (inactive) | 26.1 µM (inactive) | 27.9 µM (inactive) | 36.6 µM (inactive) | 18.7 µM (inactive) | 34 µM (inactive) | 21.9 µM (inactive) | 43.2 µM (inactive) | 17.1 µM (inactive) | 28.3 µM (inactive) | 28.2 µM (inactive) | 25.5 µM (inactive) | 28.6 µM (inactive) | 22.3 µM (inactive) | 29.4 µM (inactive) | 22.3 µM (inactive) |
| COC(=O)c1c(OC(C)=O)ccc2c1c1c(OC(C)=O)c3ccccc3c(OC(C)=O)c1n2Cc1ccccc1 | 9.77 µM (inactive) | 3.33 µM (inactive) | 1.64 µM (inactive) | 2.39 µM (inactive) | 4.09 µM (inactive) | 16.9 µM (inactive) | 13.7 µM (inactive) | 9.44 µM (inactive) | 7.91 µM (inactive) | 1.49 µM (inactive) | 1.37 µM (inactive) | 3.67 µM (inactive) | 2.72 µM (inactive) | 7.06 µM (inactive) | 1.55 µM (inactive) | 12.2 µM (inactive) |  | 1.21 µM (inactive) | 9.95 µM (inactive) | 1.61 µM (inactive) |
| CC1(C)CCCCCCCCCC(C)(CCCO)C1=O (stereo not drawn) | 18.2 µM (inactive) | 19.7 µM (inactive) | 35.2 µM (inactive) | 15.5 µM (inactive) | 17.4 µM (inactive) | 20.6 µM (inactive) | 18.5 µM (inactive) | 18.4 µM (inactive) | 16.3 µM (inactive) | 18.4 µM (inactive) | 15 µM (inactive) | 17.4 µM (inactive) | 18.4 µM (inactive) | 16.6 µM (inactive) | 14 µM (inactive) | 13.7 µM (inactive) | 17.6 µM (inactive) | 19.6 µM (inactive) | 18.2 µM (inactive) |  |
| Cc1cccc(C)c1N1C(=O)C2c3[nH]c4ccccc4c3C3CCC(C(C)(C)C)CC3C2C1=O (stereo not drawn) | 19.9 µM (inactive) | 12.8 µM (inactive) | 9.91 µM (inactive) |  | 15 µM (inactive) | 16.6 µM (inactive) | 15.7 µM (inactive) | 17 µM (inactive) | 10.9 µM (inactive) |  | 15.6 µM (inactive) | 54.5 µM (inactive) | 16.1 µM (inactive) | 13.8 µM (inactive) | 6.44 µM (inactive) | 10.3 µM (inactive) | 10.1 µM (inactive) | 13.7 µM (inactive) | 11.4 µM (inactive) | 17.5 µM (inactive) |
| CC(/C=N/N(C)C1=NCCCN1)=N/N(C)C1=NCCCN1 | > 100 µM (inactive) | > 100 µM (inactive) | > 100 µM (inactive) | > 100 µM (inactive) | > 100 µM (inactive) | > 100 µM (inactive) | > 100 µM (inactive) | > 100 µM (inactive) | > 100 µM (inactive) | > 100 µM (inactive) | > 100 µM (inactive) | > 100 µM (inactive) | > 100 µM (inactive) | > 100 µM (inactive) | > 100 µM (inactive) | > 100 µM (inactive) | > 100 µM (inactive) | > 100 µM (inactive) | > 100 µM (inactive) | > 100 µM (inactive) |
| C=C1C(=O)[C@]23C[C@H]1C[C@@H](O)[C@H]2[C@]1(COC3=O)[C@@H](OC(C)=O)CC[C@@](C)(COC(C)=O)[C@H]1C=O [LOXOTHYRIN A] | 19.5 µM (inactive) | 8.59 µM (inactive) | 28.4 µM (inactive) | > 50 µM (inactive) | > 50 µM (inactive) | 3.97 µM (inactive) | > 50 µM (inactive) | > 50 µM (inactive) | 8.53 µM (inactive) | > 50 µM (inactive) | > 50 µM (inactive) |  | > 50 µM (inactive) | > 50 µM (inactive) | > 50 µM (inactive) | > 50 µM (inactive) | > 50 µM (inactive) | > 50 µM (inactive) | > 50 µM (inactive) |  |
